Test results published in patent publication US6284774A, “4-Benzyl piperidine alkylsulfoxide heterocycles and their use as subtype-selective NMDA receptor antagonists” (priority 2000, dated 2001).

Key:
NR1A /2C = biological target: T1, NR1A /2C (Rattus norvegicus, UniProt P35439+Q00961); assay: Electrophysiological assay at NMDA receptor subunits NR1A/2C expressed in Xenopus oocytes; type: cell-based; details: rat clones in Xenopus oocytes, currents activated by glutamate (100 μM) and glycine (1-100 μM)
T1 construct: expressed in transfected cells; host or cells: Xenopus laevis oocytes (cRNA micro-injection)
T1 sequence (Q00961 20-1237, other chains not shown): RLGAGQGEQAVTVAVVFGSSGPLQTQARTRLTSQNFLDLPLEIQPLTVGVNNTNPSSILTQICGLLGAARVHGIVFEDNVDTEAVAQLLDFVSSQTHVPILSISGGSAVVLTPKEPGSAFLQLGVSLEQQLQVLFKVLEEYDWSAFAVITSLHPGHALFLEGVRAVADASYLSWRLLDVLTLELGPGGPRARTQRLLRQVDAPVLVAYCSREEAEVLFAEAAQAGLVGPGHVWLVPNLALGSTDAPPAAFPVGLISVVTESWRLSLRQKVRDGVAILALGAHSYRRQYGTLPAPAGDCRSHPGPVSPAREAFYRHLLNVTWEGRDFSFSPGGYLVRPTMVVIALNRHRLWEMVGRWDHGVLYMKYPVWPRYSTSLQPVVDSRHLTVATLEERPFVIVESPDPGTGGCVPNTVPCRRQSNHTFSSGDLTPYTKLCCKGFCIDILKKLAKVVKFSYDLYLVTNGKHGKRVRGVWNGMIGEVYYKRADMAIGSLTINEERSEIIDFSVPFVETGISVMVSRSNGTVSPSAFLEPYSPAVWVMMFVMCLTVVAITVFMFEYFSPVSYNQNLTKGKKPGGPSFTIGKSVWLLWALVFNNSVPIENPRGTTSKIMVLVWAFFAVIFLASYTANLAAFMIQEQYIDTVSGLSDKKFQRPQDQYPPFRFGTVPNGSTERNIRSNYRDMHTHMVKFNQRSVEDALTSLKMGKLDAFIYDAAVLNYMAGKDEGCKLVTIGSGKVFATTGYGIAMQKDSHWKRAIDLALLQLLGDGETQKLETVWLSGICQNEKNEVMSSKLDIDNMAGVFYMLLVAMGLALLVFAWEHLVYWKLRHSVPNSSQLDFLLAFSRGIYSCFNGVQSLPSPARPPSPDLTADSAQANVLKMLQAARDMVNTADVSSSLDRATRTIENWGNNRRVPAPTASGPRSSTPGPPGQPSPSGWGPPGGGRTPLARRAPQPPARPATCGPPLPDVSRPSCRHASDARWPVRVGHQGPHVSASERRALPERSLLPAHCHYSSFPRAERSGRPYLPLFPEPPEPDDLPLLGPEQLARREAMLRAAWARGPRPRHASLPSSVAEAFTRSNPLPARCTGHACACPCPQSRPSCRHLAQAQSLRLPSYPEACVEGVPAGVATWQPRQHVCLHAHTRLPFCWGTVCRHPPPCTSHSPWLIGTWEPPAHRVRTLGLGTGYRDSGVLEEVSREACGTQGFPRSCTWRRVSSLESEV
Excerpt: (§1) Many of the properties of native NMDA receptors are seen in recombinant homomeric NR1 receptors expressed in Xenopus oocytes. These properties are altered by the NR2 subunits. Recombinant NMDA receptors expressed in Xenopus oocytes have been studied by voltage-clamp recording, as has developmental and regional expression of the mRNAs encoding NMDA receptor subunits. Electrophysiological assays were utilized to characterize the actions of compounds at NMDA receptors expressed in Xenopus oocytes.
(§2) Electrophysiological Assays at NMDA receptor subunits.
(§3) cDNA clones encoding the NR1A, NR2A, NR2B, and NR2C rat NMDA receptor subtypes were used. […] The clones were transformed into appropriate host bacteria and plasmid preparations were made with conventional DNA purification techniques. A sample of each clone was linearized by restriction enzyme digestion and cRNA was synthesized with T3 RNA polymerase. The cRNA was diluted to 400 ng/μl and stored in 1 μl aliquots at -80° C. until injection.
(§4) The Xenopus Oocyte Expression System
(§5) Follicle-enclosed oocytes were micro-injected with 1:1 mixtures of NR1A:NR2A, 2B or 2C; infecting 1-10 ng of RNA encoding each receptor subunit. NR1A encoding RNA was injected alone at ~20 ng. Oocytes were stored in Barth's medium containing (in mM):NaCl, 88; KCl, 1; CaCl2, 0.41; Ca(NO3)2, 0.33; MgSo4, 0.82 NaHCO3, 2.4; HEPES 5, pH 7.4, with 0.11 mg/ml gentamicin sulphate. While oocytes were still surrounded by enveloping ovarian tissues the Barth's medium was supplemented with 0.1% bovine serum.
(§6) Electrical recordings were made using a conventional two-electrode voltage clamp (Dagan TEV-200) over periods ranging between 3-21 days following injection. […] Drugs were applied by bath perfusion. Using oocytes expressing different subunit combinations of NMDA receptor, NMDA currents were activated by co-application of glutamate (100 μM) and glycine (1-100 μM). Inhibitory potency of the novel antagonists was assessed on responses elicited by fixed concentrations of glutamate and glycine, by measuring reductions in current induced by progressively increasing concentrations of antagonist. Concentration-inhibition curves were fit with equation 1.
(§7) in which Icontrol is the current evoked by agonists alone, pIC50 =-log IC50, IC50 is the concentration of antagonist that produces half maximal inhibition, and n is the slope factor. […] For incomplete curves analysis by fitting was unreliable and IC50 values were calculated by simple regression over linear portions of the curves (Origin: Microcal Software).

NR1A /2B = biological target: T2, NR1A /2B (Rattus norvegicus, UniProt P35439+Q00960); assay: Electrophysiological assay at NMDA receptor subunits NR1A/2B expressed in Xenopus oocytes; type: cell-based; details: rat clones in Xenopus oocytes, currents activated by glutamate (100 μM) and glycine (1-100 μM)
T2 construct: expressed in transfected cells; host or cells: Xenopus laevis oocytes (cRNA micro-injection)
T2 sequence (Q00960 27-1482, other chains not shown): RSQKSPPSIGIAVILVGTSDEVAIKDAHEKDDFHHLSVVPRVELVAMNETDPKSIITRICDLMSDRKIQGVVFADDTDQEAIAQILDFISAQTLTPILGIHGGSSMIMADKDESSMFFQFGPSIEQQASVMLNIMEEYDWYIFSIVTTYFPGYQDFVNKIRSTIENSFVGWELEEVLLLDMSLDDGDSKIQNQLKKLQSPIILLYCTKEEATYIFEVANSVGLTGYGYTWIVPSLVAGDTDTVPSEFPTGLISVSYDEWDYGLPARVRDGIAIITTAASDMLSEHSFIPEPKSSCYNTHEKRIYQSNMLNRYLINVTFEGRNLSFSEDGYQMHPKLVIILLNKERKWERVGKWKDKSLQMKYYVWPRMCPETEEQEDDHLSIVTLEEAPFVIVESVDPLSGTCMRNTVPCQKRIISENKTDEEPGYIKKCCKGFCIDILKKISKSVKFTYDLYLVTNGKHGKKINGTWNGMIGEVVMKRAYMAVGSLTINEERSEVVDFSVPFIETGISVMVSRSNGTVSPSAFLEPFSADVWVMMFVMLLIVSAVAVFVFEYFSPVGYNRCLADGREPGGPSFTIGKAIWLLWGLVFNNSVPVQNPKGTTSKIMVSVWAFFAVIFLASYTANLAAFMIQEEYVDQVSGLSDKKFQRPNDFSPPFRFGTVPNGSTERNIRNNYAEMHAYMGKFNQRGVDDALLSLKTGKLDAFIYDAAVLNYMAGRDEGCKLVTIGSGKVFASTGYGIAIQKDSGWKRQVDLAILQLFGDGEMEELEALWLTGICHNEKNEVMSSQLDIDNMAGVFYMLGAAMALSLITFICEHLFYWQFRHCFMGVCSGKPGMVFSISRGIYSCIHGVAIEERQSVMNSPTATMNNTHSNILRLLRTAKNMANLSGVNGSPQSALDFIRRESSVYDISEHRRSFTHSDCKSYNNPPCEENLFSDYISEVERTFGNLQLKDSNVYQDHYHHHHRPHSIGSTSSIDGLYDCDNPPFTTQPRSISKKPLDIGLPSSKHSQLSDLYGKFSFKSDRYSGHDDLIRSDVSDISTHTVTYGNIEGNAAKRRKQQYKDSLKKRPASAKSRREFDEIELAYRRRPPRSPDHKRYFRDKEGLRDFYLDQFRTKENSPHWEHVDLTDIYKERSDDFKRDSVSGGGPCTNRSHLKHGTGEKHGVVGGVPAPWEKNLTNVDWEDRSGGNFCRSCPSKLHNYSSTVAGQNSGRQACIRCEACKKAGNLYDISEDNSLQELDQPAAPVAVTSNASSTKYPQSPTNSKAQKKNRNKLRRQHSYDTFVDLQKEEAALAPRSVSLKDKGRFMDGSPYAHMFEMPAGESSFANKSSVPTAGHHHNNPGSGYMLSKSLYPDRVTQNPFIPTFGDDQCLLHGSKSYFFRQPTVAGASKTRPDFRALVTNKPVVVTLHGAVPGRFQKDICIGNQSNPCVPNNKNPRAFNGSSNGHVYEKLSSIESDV
Excerpt: as §1, §2, §3, §4, §5, §6, §7

NRIA /2A = biological target: T3, NRIA /2A (Rattus norvegicus, UniProt P35439+Q00959); assay: Electrophysiological assay at NMDA receptor subunits NR1A/2A expressed in Xenopus oocytes; type: cell-based; details: rat clones in Xenopus oocytes, currents activated by glutamate (100 μM) and glycine (1-100 μM)
T3 construct: expressed in transfected cells; host or cells: Xenopus laevis oocytes (cRNA micro-injection)
T3 sequence (Q00959 23-1464, other chains not shown): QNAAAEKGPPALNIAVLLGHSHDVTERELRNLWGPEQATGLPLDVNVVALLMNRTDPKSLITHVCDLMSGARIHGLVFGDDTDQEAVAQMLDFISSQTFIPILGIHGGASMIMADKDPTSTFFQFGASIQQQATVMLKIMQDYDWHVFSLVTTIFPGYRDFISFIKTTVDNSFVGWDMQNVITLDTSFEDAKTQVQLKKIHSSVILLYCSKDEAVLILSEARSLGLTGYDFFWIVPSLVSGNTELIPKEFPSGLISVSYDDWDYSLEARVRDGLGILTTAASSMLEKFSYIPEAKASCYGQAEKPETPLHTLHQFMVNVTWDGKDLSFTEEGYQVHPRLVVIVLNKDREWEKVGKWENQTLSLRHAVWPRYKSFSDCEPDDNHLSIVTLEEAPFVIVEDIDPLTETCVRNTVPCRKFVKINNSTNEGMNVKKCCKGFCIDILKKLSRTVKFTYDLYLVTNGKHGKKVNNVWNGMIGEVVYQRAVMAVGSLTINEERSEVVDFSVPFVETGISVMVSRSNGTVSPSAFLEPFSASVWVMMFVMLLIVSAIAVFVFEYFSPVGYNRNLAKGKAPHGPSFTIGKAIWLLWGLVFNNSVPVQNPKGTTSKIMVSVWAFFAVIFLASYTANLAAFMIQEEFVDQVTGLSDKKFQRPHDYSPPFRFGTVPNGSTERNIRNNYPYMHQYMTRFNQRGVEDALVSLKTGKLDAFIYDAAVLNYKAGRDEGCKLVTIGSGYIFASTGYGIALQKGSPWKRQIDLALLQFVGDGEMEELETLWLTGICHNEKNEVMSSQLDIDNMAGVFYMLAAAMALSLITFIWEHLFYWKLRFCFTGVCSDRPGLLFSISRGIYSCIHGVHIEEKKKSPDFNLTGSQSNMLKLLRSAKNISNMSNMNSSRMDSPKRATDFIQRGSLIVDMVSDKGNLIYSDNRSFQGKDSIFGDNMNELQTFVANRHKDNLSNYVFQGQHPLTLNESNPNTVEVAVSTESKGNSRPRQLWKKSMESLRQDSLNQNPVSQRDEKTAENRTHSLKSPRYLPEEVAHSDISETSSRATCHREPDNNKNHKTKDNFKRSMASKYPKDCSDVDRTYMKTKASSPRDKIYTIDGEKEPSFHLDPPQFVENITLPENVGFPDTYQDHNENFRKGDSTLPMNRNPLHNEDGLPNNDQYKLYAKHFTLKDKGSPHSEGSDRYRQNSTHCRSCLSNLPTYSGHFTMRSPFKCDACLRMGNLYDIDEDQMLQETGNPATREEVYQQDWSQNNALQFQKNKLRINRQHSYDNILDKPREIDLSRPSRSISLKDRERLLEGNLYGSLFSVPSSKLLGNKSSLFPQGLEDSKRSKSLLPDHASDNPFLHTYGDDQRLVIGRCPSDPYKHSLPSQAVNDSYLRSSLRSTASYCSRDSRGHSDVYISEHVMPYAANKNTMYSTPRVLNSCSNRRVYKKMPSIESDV
Excerpt: as §1, §2, §3, §4, §5, §6, §7

[1] = test system: 6-Hydroxydopamine-lesioned rats; assay: 6-OHDA Rat Assay: potentiation of contraversive rotation induced by L-DOPA methyl ester; type: in vivo, Sprague-Dawley rats; details: po; L-DOPA methyl ester 10 mg/kg SC; total contraversive rotations over 6 hour vs L-DOPA only
Method: Adult male Sprague-Dawley rats were anesthetized with chloral hydrate and unilateral lesions of the nigrostriatal dopamine system were accomplished by infusion of 8 μg of 6-hydroxydopamine HBr (6-OHDA) into the right medial forebrain bundle. […] A minimum of 3 weeks after surgery, the rotational behavior induced by apomorphine HCL 50 μg/kg subcutaneously (SC) was assessed. […] Rotational behavior was measured using an automatic rotometer system (Rotorat Rotational Activity System, MED Associates, Georgia, Vt.). Anti-parkinsonian activity was assessed as the ability of the compound to potentiate the contraversive rotation induced by L-DOPA methyl ester, 10 mg/kg SC, over a 6 hour period. Experiments were conducted using a crossover paradigm where each rat received either a vehicle plus L-DOPA, or the test compound plus L-DOPA, in randomized order. Rats were tested at 7 day intervals. In experiments in which the compound was tested orally, rats were food deprived for 16 hours. Statistical analysis between treatment groups were performed using a paired t-test.

[2] = at plasma levels leading to NMDA receptor antagonism; cited from earlier work
[3] = test system: d-amphetamine-induced stimulation; details: injected into rat nucleus accumbens vs striatum; cited from earlier work

SMILES: O=c1[nH]c2ccc([S+]([O-])CCN3CCC(Cc4ccccc4)CC3)cc2o1 (stereo not shown) [Example 4, 6-[2-(4-Benzyl-piperidin-1-yl)-ethanesulfinyl]-3H-benzooxazol-2-one]
- IC50 (NR1A /2C): > 300 µM
- IC50 (NR1A /2B): 0.03 µM
- IC50 (NRIA /2A): > 300 µM
- 6-OHDA rat MED (minimum effective dose) [1]: 3 mg/kg

SMILES: NC12CC3CC(CC(C3)C1)C2 [amantadine]
- antiparkinsonian-like activity [2]: showed antiparkinsonian-like activity in animals

SMILES: O=c1[nH]c2ccc([S+]([O-])CCN3CCC(Cc4ccc(C(F)(F)F)cc4)CC3)cc2o1 (stereo not shown) [Example 13]
- IC50 (NR1A /2C): 150 µM
- IC50 (NR1A /2B): 0.04 µM
- IC50 (NRIA /2A): 35 µM
- 6-OHDA rat MED (minimum effective dose) [1]: 10 mg/kg

SMILES: CC(=O)Nc1ccc(CC2CCN(CC[S+]([O-])c3ccc4[nH]c(=O)oc4c3)CC2)cc1 (stereo not shown) [Example 16, N-(4-{1-[2-(2-oxo-2,3-dihydrobenzooxazol-6-sulfinyl)ethyl]piperidin-4-ylmethyl}phenyl)acetamide]
- IC50 (NR1A /2C): > 300 µM
- IC50 (NR1A /2B): 10 µM
- IC50 (NRIA /2A): > 300 µM

SMILES: Cc1ccc(CC2CCN(CC[S+]([O-])c3ccc4[nH]c(=O)oc4c3)CC2)cc1 (stereo not shown) [Example 3, 6-{2-[4-(4-methyl-benzyl)-piperidin-1-yl]-ethanesulfinyl}-3H-benzooxazol-2-one]
- IC50 (NR1A /2B): 0.03 µM
- IC50 (NRIA /2A): 100 µM
- 6-OHDA rat MED (minimum effective dose) [1]: 3 mg/kg

SMILES: O=c1[nH]c2ccc([S+]([O-])CCN3CCC(Cc4ccc(F)cc4F)CC3)cc2o1 (stereo not shown) [Example 12, 6-{2-[4-(2,4-difluorobenzyl)-piperidin-1-yl]-ethanesulfinyl}-3H-benzooxazol-2-one]
- IC50 (NR1A /2C): 130 µM
- IC50 (NR1A /2B): 0.01 µM
- IC50 (NRIA /2A): 30 µM
- 6-OHDA rat MED (minimum effective dose) [1]: 10 mg/kg

SMILES: O=c1[nH]c2ccc([S+]([O-])CCN3CCC(Cc4ccc(Cl)cc4Cl)CC3)cc2o1 (stereo not shown) [Example 15, 6-{2-[4-(2,4-dichlorobenzyl)-piperidin-1-yl]-ethanesulfinyl}-3H-benzooxazol-2-one]
- IC50 (NR1A /2C): 150 µM
- IC50 (NR1A /2B): 0.04 µM
- IC50 (NRIA /2A): 90 µM
- 6-OHDA rat MED (minimum effective dose) [1]: 10 mg/kg

SMILES: O=C(c1ccccc1)C1CCN(CC[S+]([O-])c2ccc3[nH]c(=O)oc3c2)CC1 (stereo not shown) [Example 10, 6-[2-(4-benzoylpiperidin-1-yl)-ethanesulfinyl]-3H-benzooxazol-2-one]
- IC50 (NR1A /2C): 140 µM
- IC50 (NR1A /2B): 0.34 µM
- IC50 (NRIA /2A): 70 µM

SMILES: O=c1[nH]c2ccc([S+]([O-])CCN3CCC(Cc4ccc(F)cc4)CC3)cc2o1 (single isomer, unassigned; (-)) [Example 20, (-)-6-{2-[4,(4-fluorobenzyl)piperidin-1-yl]ethanesulfinyl}-3H-benzooxazol-2-one]
- IC50 (NR1A /2B): 0.03 µM
- 6-OHDA rat MED (minimum effective dose) [1]: 30 mg/kg

SMILES: CC12CC3CC(C)(C1)CC(N)(C3)C2 [memantine]
- antiparkinsonian-like activity [2]: showed antiparkinsonian-like activity in animals

SMILES: O=c1[nH]c2ccc([S+]([O-])CCN3CCC(Cc4ccc(F)cc4)CC3)cc2o1 (stereo not shown) [Example 1, 6-[2-[4-(4-Fluoro-benzyl)-piperidin-1-yl]-ethanesulfinyl]-3H-benzooxazol-2-one]
- IC50 (NR1A /2C): 190 µM
- IC50 (NR1A /2B): 0.03 µM
- IC50 (NRIA /2A): 105 µM
- 6-OHDA rat MED (minimum effective dose) [1]: 1 mg/kg

SMILES: O=c1[nH]c2ccc([S+]([O-])CCN3CCC(Cc4ccccc4F)CC3)cc2o1 (stereo not shown) [Example 7, 6-{2-[4-(2-fluorobenzyl)-piperidin-1-yl]-ethanesulfinyl}-3H-benzooxazol-2-one]
- IC50 (NR1A /2C): 60 µM
- IC50 (NR1A /2B): 0.09 µM
- IC50 (NRIA /2A): 55 µM
- 6-OHDA rat MED (minimum effective dose) [1]: 10 mg/kg

SMILES: O=c1[nH]c2ccc([S+]([O-])CCN3CCC(Cc4c(F)cccc4F)CC3)cc2o1 (stereo not shown) [Example 14, 6-{2-4[-(2,6-difluorobenzyl)-piperidin-1-yl]-ethanesulfinyl}-3H-benzooxazol-2-one]
- IC50 (NR1A /2C): 160 µM
- IC50 (NR1A /2B): 0.04 µM
- IC50 (NRIA /2A): 55 µM
- 6-OHDA rat MED (minimum effective dose) [1]: > 10 mg/kg

SMILES: O=c1[nH]c2ccc([S+]([O-])CCN3CCC(Cc4ccc(Cl)c(Cl)c4)CC3)cc2o1 (stereo not shown) [Example 6, 6-{2-[4-(3,4-dichlorobenzyl)-piperidin-1-yl]-ethanesulfinyl}-3H-benzooxazol-2-one]
- IC50 (NR1A /2C): 80 µM
- IC50 (NR1A /2B): 0.1 µM
- IC50 (NRIA /2A): 70 µM
- 6-OHDA rat MED (minimum effective dose) [1]: > 10 mg/kg

SMILES: O=c1[nH]c2ccc([S+]([O-])CCN3CCC(Cc4ccc(Cl)cc4)CC3)cc2o1 (stereo not shown) [Example 2, 6-{2-[4-(4-chloro-benzyl)-piperidin-1-yl]-ethanesulfinyl}-3H-benzooxazol-2-one]
- IC50 (NR1A /2C): 200 µM
- IC50 (NR1A /2B): 0.02 µM
- IC50 (NRIA /2A): > 300 µM
- 6-OHDA rat MED (minimum effective dose) [1]: 3 mg/kg

SMILES: COc1ccc(CC2CCN(CC[S+]([O-])c3ccc4[nH]c(=O)oc4c3)CC2)cc1 (stereo not shown) [Example 5, 6-{2-[4-(4-methoxybenzyl)-piperidin-1-yl]-ethanesulfinyl}-3H-benzooxazol-2-one]
- IC50 (NR1A /2C): 150 µM
- IC50 (NR1A /2B): 0.1 µM
- IC50 (NRIA /2A): 55 µM
- 6-OHDA rat MED (minimum effective dose) [1]: > 10 mg/kg

SMILES: N[C@@H]1CCN(O)C1=O [(+) HA-966]
- antagonism of d-amphetamine-induced stimulation [3]: selectively antagonize d-amphetamine-induced stimulation when injected into rat nucleus accumbens but not in striatum

SMILES: O=c1[nH]c2ccc([S+]([O-])CCN3CCC(O)(Cc4ccccc4)CC3)cc2o1 (stereo not shown) [Example 8, 6-[2-(4-benzyl-4-hydroxypiperidin-1-yl)-ethanesulfinyl]-3H-benzooxazol-2-one]
- IC50 (NR1A /2C): 230 µM
- IC50 (NR1A /2B): 1.1 µM
- IC50 (NRIA /2A): 40 µM

SMILES: O=c1[nH]c2ccc([S+]([O-])CCN3CCC(Cc4cccc(F)c4F)CC3)cc2o1 (stereo not shown) [Example 11, 6-{2-[4-(2,3-difluorobenzyl)-piperidin-1-yl]-ethanesulfinyl}-3H-benzooxazol-2-one]
- IC50 (NR1A /2C): 140 µM
- IC50 (NR1A /2B): 0.05 µM
- IC50 (NRIA /2A): 40 µM
- 6-OHDA rat MED (minimum effective dose) [1]: 10 mg/kg

SMILES: O=c1[nH]c2cc(Cl)c([S+]([O-])CCN3CCC(Cc4ccccc4)CC3)cc2o1 (stereo not shown) [Example 17, 6-[2-(4-benzylpiperidin-1-yl)ethanesulfinyl]-5-chloro-3H-benzooxazol-2-one]
- IC50 (NR1A /2C): > 300 µM
- IC50 (NR1A /2B): 0.16 µM
- IC50 (NRIA /2A): 40 µM
- 6-OHDA rat MED (minimum effective dose) [1]: > 10 mg/kg

SMILES: O=c1[nH]c2ccc([S+]([O-])CCN3CCC(Cc4ccc(F)cc4)CC3)cc2o1 (single isomer, unassigned; (+)) [Example 19, (+)-6-{2-[4-(4-fluorobenzyl)piperidine-1-yl]ethanesulfinyl}-3H-benzooxazol-2-one]
- IC50 (NR1A /2B): 0.03 µM
- 6-OHDA rat MED (minimum effective dose) [1]: 1 mg/kg

SMILES: O=C(O)c1cc(O)c2c(Cl)cc(Cl)cc2n1 [5,7-dichlorokynurenic acid]
- antagonism of d-amphetamine-induced stimulation [3]: selectively antagonize d-amphetamine-induced stimulation when injected into rat nucleus accumbens but not in striatum

SMILES: O=c1[nH]c2cc(Cl)c([S+]([O-])CCN3CCC(Cc4ccc(F)cc4)CC3)cc2o1 (stereo not shown) [Example 18, 5-Chloro-6-{2-[4-(4-fluorobenzyl)piperidin-1-yl]ethanesulfinyl}-3H-benzooxazol-2-one]
- IC50 (NR1A /2C): > 300 µM
- IC50 (NR1A /2B): 0.11 µM
- IC50 (NRIA /2A): 35 µM
- 6-OHDA rat MED (minimum effective dose) [1]: > 10 mg/kg

SMILES: O=c1[nH]c2ccc([S+]([O-])CCN3CCC(O)(Cc4ccc(F)cc4)CC3)cc2o1 (stereo not shown) [Example 9, 6-{2-[4-(4-fluorobenzyl)-4-hydroxy-piperidin-1-yl]-ethanesulfinyl}-3H-benzooxazol-2-one]
- IC50 (NR1A /2C): 200 µM
- IC50 (NR1A /2B): 0.9 µM
- IC50 (NRIA /2A): 50 µM
- 6-OHDA rat MED (minimum effective dose) [1]: > 10 mg/kg
